Results from patent US20090258870A1, “NOVEL ANSAMITOCIN DERIVATIVES” (priority 2008, published 2009).
≈ marks a conversion by molar mass, not a printed value.

Assays:
A-549 = assay: Growth inhibition of A-549 cells, MTT assay; assay type: cell-based, human; conditions: for Antiproliferative activity IC50: A-549, lung carcinoma, 5 days, MTT
Protocol: (§1) For the detailed evaluation of their biological profile as anti-cancer agents, cultured human tumor cell lines were treated with the new ansamitocin derivatives. In particular, the 19-fluoro-20-demethoxyansamitocin P3 (F-A), 19-chloro-20-demethoxyansamitocin P3 (Cl-A), 19-bromo-20-demethoxyansamitocin P3 (Br-A), and the 20-demethoxy-19-vinylansamitocin P3 (VI) were tested for their inhibitory effect on cell growth of different cell lines, namely KB-3-1, U-937, PC-3, SK-OV-3, A-498, A-431, and A-549, in comparison to natural biosynthesis product Ansamitocin P-3 (AP-3). Growth inhibition was measured in microtiter plates. 60 μl of serial dilutions of the test compounds were added to aliquots of 120 μl of the suspended cells (50000/ml). After 5 days the growth was determined using a MTT assay, except for U-937, where the WST-1 assay from Roche was employed.

U-937 = assay: Growth inhibition of U-937 cells, WST-1 assay; assay type: cell-based, human; conditions: for Antiproliferative activity IC50: U-937, lymphoma, 5 days, WST-1
Protocol: as §1

SK-OV-3 = assay: Growth inhibition of SK-OV-3 cells, MTT assay; assay type: cell-based, human; conditions: for Antiproliferative activity IC50: SK-OV-3, ovarian carcinoma, 5 days, MTT
Protocol: as §1

A-431 = assay: Growth inhibition of A-431 cells, MTT assay; assay type: cell-based, human; conditions: for Antiproliferative activity IC50: A-431, epidermoid carcinoma, 5 days, MTT
Protocol: as §1

A-498 = assay: Growth inhibition of A-498 cells, MTT assay; assay type: cell-based, human; conditions: for Antiproliferative activity IC50: A-498, kidney carcinoma, 5 days, MTT
Protocol: as §1

KB-3-1 = assay: Growth inhibition of KB-3-1 cells, MTT assay; assay type: cell-based, human; conditions: for Antiproliferative activity IC50: KB-3-1, cervix carcinoma, 5 days, MTT
Protocol: as §1

PC-3 = assay: Growth inhibition of PC-3 cells, MTT assay; assay type: cell-based, human; conditions: for Antiproliferative activity IC50: PC-3, prostate carcinoma, 5 days, MTT
Protocol: as §1

[1] = test system: cultured human tumor cell lines; assay: Antiproliferative activity on cultured human tumor cell lines (panel, general statements); assay type: cell-based; conditions: in general, across the cell lines tested
Protocol: as §1

| Compound | Antiproliferative activity IC50 (A-549) [ng/mL] | Antiproliferative activity IC50 (U-937) [ng/mL] | Antiproliferative activity IC50 (SK-OV-3) [ng/mL] | Antiproliferative activity IC50 (A-431) [ng/mL] | Antiproliferative activity IC50 (A-498) [ng/mL] | Antiproliferative activity IC50 (KB-3-1) [ng/mL] | Antiproliferative activity IC50 (PC-3) [ng/mL] | relative activity among the compounds tested [1] | IC50 (A-549; Homo sapiens, A549, 120 h, read-out: Antiproliferative activity IC50) [ng/mL] | IC50 (U-937; Homo sapiens, U-937, 120 h, read-out: Antiproliferative activity IC50) [ng/mL] | IC50 (SK-OV-3; Homo sapiens, SK-OV-3, 120 h, read-out: Antiproliferative activity IC50) [ng/mL] | IC50 (A-431; Homo sapiens, A-431, 120 h, read-out: Antiproliferative activity IC50) [ng/mL] | IC50 (A-498; Homo sapiens, A498, 120 h, read-out: Antiproliferative activity IC50) [ng/mL] | IC50 (KB-3-1; Homo sapiens, KB 3-1, 120 h, read-out: Antiproliferative activity IC50) [ng/mL] | IC50 (PC-3; Homo sapiens, PC-3, 120 h, read-out: Antiproliferative activity IC50) [ng/mL] |
| --- | --- | --- | --- | --- | --- | --- | --- | --- | --- | --- | --- | --- | --- | --- | --- |
| 19-chloro-20-demethoxyansamitocin P3 [Cl-A] | 0.4 | 0.035 | 0.1 | 0.15 | 3 | 0.35 | 0.12 | – | – | – | – | – | – | – | – |
| 19-fluoro-20-demethoxyansamitocin P3 [F-A] | 0.11 | 0.01 | 0.035 | 0.04 | 2 | 0.18 | 0.035 | most active | – | – | – | – | – | – | – |
| C=Cc1ccc2cc1N(C)C(=O)CC(OC(=O)C(C)C)C1(C)OC1C(C)C1CC(O)(NC(=O)O1)C(OC)C=CC=C(C)C2 (stereo not shown) [20-demethoxy-19-vinylansamitocin P3] | – | – | – | – | – | – | – | most active | – | – | – | – | – | – | – |
| COc1cc2cc(c1Cl)N(C)C(=O)C[C@H](OC(=O)C(C)C)[C@]1(C)O[C@@H]1[C@H](C)[C@@H]1C[C@@](O)(NC(=O)O1)[C@H](OC)/C=C/C=C(\C)C2 [AP-3, Ansamitocin P-3, reference compound] | 0.1 | 0.0035 | 0.03 | 0.05 | 1.1 | 0.11 | 0.035 | – | – | – | – | – | – | – | – |
| CO[C@@H]1/C=C/C=C(\C)Cc2ccc(Br)c(c2)N(C)C(=O)C[C@H](OC(=O)C(C)C)[C@]2(C)O[C@H]2[C@H](C)[C@@H]2C[C@@]1(O)NC(=O)O2 [Br-A, 19-bromo-20-demethoxyansamitocin P3] | 0.3 | 0.03 | 0.05 | 0.1 | 4 | 0.3 | 0.1 | – | – | – | – | – | – | – | – |
| C=Cc1ccc2cc1N(C)C(=O)C[C@H](OC(=O)C(C)C)[C@]1(C)O[C@H]1[C@H](C)[C@@H]1C[C@@](O)(NC(=O)O1)[C@H](OC)/C=C/C=C(\C)C2 [VI, 20-demethoxy-19-vinylansamitocin P3] | – | – | – | – | – | – | – | – | 0.14 (≈ 0.235 nM) | 0.05 (≈ 0.0838 nM) | 0.04 (≈ 0.067 nM) | 0.04 (≈ 0.067 nM) | 2 (≈ 3.35 nM) | 0.4 (≈ 0.67 nM) | 0.1 (≈ 0.168 nM) |
